Several values for one entry are separate records, joined by “and”; a condition that tells them apart may be missing. Identical values can stand only once.

Hrh3 protein, sequence (Q5PPG3 whole entry): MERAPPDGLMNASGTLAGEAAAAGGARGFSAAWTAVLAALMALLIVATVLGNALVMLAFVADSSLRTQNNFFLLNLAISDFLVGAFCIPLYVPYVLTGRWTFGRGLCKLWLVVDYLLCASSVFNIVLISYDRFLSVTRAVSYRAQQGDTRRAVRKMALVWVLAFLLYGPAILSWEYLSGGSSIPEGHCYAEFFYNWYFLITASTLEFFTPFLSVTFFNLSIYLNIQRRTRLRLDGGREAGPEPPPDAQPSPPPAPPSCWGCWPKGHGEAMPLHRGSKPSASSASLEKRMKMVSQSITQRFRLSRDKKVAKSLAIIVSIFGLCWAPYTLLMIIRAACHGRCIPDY

The assay has as its target Hrh3 protein (Rattus norvegicus, UniProt Q5PPG3).
Consider `COc1ccc(CN(CCN(C)C)c2ccccn2)cc1`, for which the inhibition constant Ki (as a rule, a measure of affinity in units of concentration, obtained from inhibition or displacement) is 7940 nM and > 10000 nM.

With `CN/C([CH-][N+](=O)[O-])=[NH+]\CCSCc1ccc(CN(C)C)o1`, the Ki was 5010 nM and > 10000 nM.

In turn, `CNC(=S)NCCCCc1cnc[nH]1` [1-[4-(1H-imidazol-5-yl)butyl]-3-methylthiourea] registered a Ki of 63.1 nM.

Take `Cc1[nH]cnc1CSCCNC(=N)NCCCc1c[nH]cn1` [2-[3-(1H-imidazol-5-yl)propyl]-1-(2-{[(5-methyl-1H-imidazol-4-yl)methyl]sulfanyl}ethyl)guanidine]: the inhibition constant (Ki) was 19.9 nM and 12.6 nM.

Consider `NC(=NC1CCCCC1)N1CCC(c2cnc[nH]2)CC1` [GR-168320], for which the Ki is 0.15 nM and 0.19 nM.
